According to patent US9302999B2, “Substituted triazoles as herbicides” (E. I. DU PONT DE NEMOURS AND COMPANY, priority 2012, dated 2016):

What was measured:
Waterhemp [1] = assay: Test C postemergence: waterhemp; assay type: in vivo; conditions: 62 g ai/ha, scale 0 to 100 (0 no effect, 100 complete control)
Excerpt: (§1) At the same time, plants selected from these crop and weed species and also barley (winter barley, Hordeum vulgare), canarygrass (Phalaris minor), chickweed (common chickweed, Stellaria media) windgrass (Apera spica-venti) and deadnettle (henbit deadnettle, Lamium amplexicaule) were planted in pots containing Redi-Earth® planting medium (Scotts Company, 14111 Scottslawn Road, Marysville, Ohio 43041) comprising spaghnum peat moss, vermiculite, wetting agent and starter nutrients and treated with postemergence applications of test chemicals formulated in the same manner. Plants ranged in height from 2 to 18 cm (1- to 4-leaf stage) for postemergence treatments.
(§2) Treated plants and controls were maintained in a greenhouse for 13 to 15 days, after which time all species were compared to controls and visually evaluated. Plant response ratings, summarized in Table C, are based on a scale of 0 to 100 where 0 is no effect and 100 is complete control. A dash (-) response means no test result.

Oilseed Rape [2] = assay: Test C postemergence: oilseed rape; assay type: in vivo; conditions: 62 g ai/ha, scale 0 to 100 (0 no effect, 100 complete control)
Excerpt: as §1, §2

[3] = system: barnyardgrass (Echinochloa crus-galli); assay: Test C pre-/postemergence: barnyardgrass; assay type: in vivo; conditions: Preemergence, 250 g ai/ha; scale 0 to 100, 0 no effect, 100 complete control
Barnyardgrass = assay: Test C postemergence: barnyardgrass; assay type: in vivo, Echinochloa crus-galli
Method in brief: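 Greenhouse pot test; foliar postemergence treatment at 1- to 4-leaf stage. Rated visually at 13 to 15 days on a 0–100 control scale relative to untreated plants.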

Oilseed Rape [4] = assay: Test C pre-/postemergence: oilseed rape; assay type: in vivo
Waterhemp [5] = assay: Test C postemergence: waterhemp; assay type: in vivo, Amaranthus rudis
Excerpt: (§3) Seeds of plant species selected from blackgrass (Alopecurus myosuroides), bromegrass, downy (downy bromegrass, Bromus tectorum), foxtail, green (green foxtail, Setaria viridis), ryegrass, Italian (Italian ryegrass, Lolium multiflorum), winter wheat (Triticum aestivum), wild oat (Avena fatua), galium (catchweed bedstraw, Galium aparine), bermudagrass (Cynodon dactylon), surinam grass (Brachiaria decumbens), cocklebur (common cocklebur, Xanthium strumarium), corn (Zea mays), large crabgrass (Digitaria sanguinalis), woolly cupgrass (Eriochloa villosa), foxtail, giant (giant foxtail, Setaria faberii), goosegrass (Eleusine indica), johnsongrass (Sorghum halepense), kochia (Kochia scoparia), lambsquarters (Chenopodium album), morningglory (Ipomoea coccinea), nightshade (eastern black nightshade, Solanum ptycanthum), nutsedge, yellow (yellow nutsedge, Cyperus esculentus), pigweed (Amaranthus retroflexus), ragweed (common ragweed, Ambrosia elation), soybean (Glycine max), common (oilseed) sunflower (Helianthus annuus), Russian thistle (Salsola kali) and velvetleaf (Abutilon theophrasti) were planted into a blend of loam soil and sand and treated preemergence with test chemicals formulated in a non-phytotoxic solvent mixture which included a surfactant.
as §1, §2

Oilseed Rape [6] = assay: Test C preemergence: oilseed rape; assay type: in vivo, Brassica napus; conditions: 125 g ai/ha, scale 0 to 100, 0 no effect, 100 complete control
Oilseed Rape [7] = assay: Test C postemergence: oilseed rape; assay type: in vivo, Brassica napus
Excerpt: as §3, §1, §2

Waterhemp [8] = assay: Test C pre-/postemergence: waterhemp; assay type: in vivo; conditions: Postemergence, 31 g ai/ha; scale 0 to 100 (0 no effect, 100 complete control)
Oilseed Rape [9] = assay: Test C preemergence: oilseed rape; assay type: in vivo; conditions: 62 g ai/ha, scale of 0 to 100, 0 is no effect, 100 is complete control
Excerpt: as §3, §2

[10] = 31 g ai/ha, scale 0 to 100 (0 no effect, 100 complete control)
[11] = 62 g ai/ha, scale 0 to 100 (0 no effect, 100 complete control)
[12] = Postemergence, 31 g ai/ha, scale 0 to 100 (0 no effect, 100 complete control)
[13] = Preemergence, 250 g ai/ha, scale 0 to 100, 0 no effect, 100 complete control
[14] = 125 g ai/ha, scale 0 to 100, 0 no effect, 100 complete control
[15] = 250 g ai/ha, scale 0 to 100 (0 no effect, 100 complete control)

## CCCc1nn(-c2ccc(C(F)(F)F)cc2)nc1Oc1ccnc(C(F)(F)F)c1 [Compound 170]
Waterhemp [1]
  Plant response rating, Waterhemp: 98
Oilseed Rape [2]
  Plant response rating, Oilseed Rape: 50
[3]
  Plant response rating, Barnyardgrass: 100
Barnyardgrass; [10]
  Plant response rating, Barnyardgrass: 20
Barnyardgrass; [11]
  Plant response rating, Barnyardgrass: 55
Barnyardgrass; 250 g ai/ha, scale 0 to 100
  Plant response rating, Barnyardgrass: 95
Oilseed Rape [4]; [12]
  Plant response rating, Oilseed Rape: 30
Oilseed Rape [4]; [13]
  Plant response rating, Oilseed Rape: 100
Waterhemp [5]; [14]
  Plant response rating, Waterhemp: 98
Waterhemp [5]; [15]
  Plant response rating, Waterhemp: 100
Oilseed Rape [6]
  Plant response rating, Oilseed Rape: 100
Oilseed Rape [7]; [14]
  Plant response rating, Oilseed Rape: 50
Oilseed Rape [7]; [15]
  Plant response rating, Oilseed Rape: 85
Waterhemp [8]
  Plant response rating, Waterhemp: 85
Oilseed Rape [9]
  Plant response rating, Oilseed Rape: 95

## CCc1nn(-c2ccc(C(F)(F)F)c(F)c2)nc1Oc1ccnc(C(F)(F)F)c1 [Compound 183]
Waterhemp [1]
  Plant response rating, Waterhemp: 100
Oilseed Rape [2]
  Plant response rating, Oilseed Rape: 25
[3]
  Plant response rating, Barnyardgrass: 100
Barnyardgrass; [10]
  Plant response rating, Barnyardgrass: 15
Barnyardgrass; [11]
  Plant response rating, Barnyardgrass: 35
Barnyardgrass; 250 g ai/ha, scale 0 to 100
  Plant response rating, Barnyardgrass: 85
Oilseed Rape [4]; [12]
  Plant response rating, Oilseed Rape: 20
Oilseed Rape [4]; [13]
  Plant response rating, Oilseed Rape: 100
Waterhemp [5]; [14]
  Plant response rating, Waterhemp: 100
Waterhemp [5]; [15]
  Plant response rating, Waterhemp: 100
Oilseed Rape [6]
  Plant response rating, Oilseed Rape: 100
Oilseed Rape [7]; [14]
  Plant response rating, Oilseed Rape: 25
Oilseed Rape [7]; [15]
  Plant response rating, Oilseed Rape: 50
Waterhemp [8]
  Plant response rating, Waterhemp: 85
Oilseed Rape [9]
  Plant response rating, Oilseed Rape: 80

## CCc1nn(-c2ccc(F)c(F)c2)nc1Oc1ccnc(C(F)(F)F)c1 [Compound 171]
Waterhemp [1]
  Plant response rating, Waterhemp: 75
Oilseed Rape [2]
  Plant response rating, Oilseed Rape: 20
[3]
  Plant response rating, Barnyardgrass: 98
Barnyardgrass; [10]
  Plant response rating, Barnyardgrass: 10
Barnyardgrass; [11]
  Plant response rating, Barnyardgrass: 15
Barnyardgrass; 250 g ai/ha, scale 0 to 100
  Plant response rating, Barnyardgrass: 75
Oilseed Rape [4]; [12]
  Plant response rating, Oilseed Rape: 5
Oilseed Rape [4]; [13]
  Plant response rating, Oilseed Rape: 90
Waterhemp [5]; [14]
  Plant response rating, Waterhemp: 75
Waterhemp [5]; [15]
  Plant response rating, Waterhemp: 98
Oilseed Rape [6]
  Plant response rating, Oilseed Rape: 50
Oilseed Rape [7]; [14]
  Plant response rating, Oilseed Rape: 30
Oilseed Rape [7]; [15]
  Plant response rating, Oilseed Rape: 30
Waterhemp [8]
  Plant response rating, Waterhemp: 70
Oilseed Rape [9]
  Plant response rating, Oilseed Rape: 50

## CCc1nn(-c2ccc(C(F)(F)F)cc2)nc1Oc1ccnc(C(F)(F)F)c1 [Compound 169]
Waterhemp [1]
  Plant response rating, Waterhemp: 80
Oilseed Rape [2]
  Plant response rating, Oilseed Rape: 40
[3]
  Plant response rating, Barnyardgrass: 100
Barnyardgrass; [10]
  Plant response rating, Barnyardgrass: 15
Barnyardgrass; [11]
  Plant response rating, Barnyardgrass: 25
Barnyardgrass; 250 g ai/ha, scale 0 to 100
  Plant response rating, Barnyardgrass: 85
Oilseed Rape [4]; [12]
  Plant response rating, Oilseed Rape: 30
Oilseed Rape [4]; [13]
  Plant response rating, Oilseed Rape: 100
Waterhemp [5]; [14]
  Plant response rating, Waterhemp: 80
Waterhemp [5]; [15]
  Plant response rating, Waterhemp: 95
Oilseed Rape [6]
  Plant response rating, Oilseed Rape: 100
Oilseed Rape [7]; [14]
  Plant response rating, Oilseed Rape: 40
Oilseed Rape [7]; [15]
  Plant response rating, Oilseed Rape: 60
Waterhemp [8]
  Plant response rating, Waterhemp: 75
Oilseed Rape [9]
  Plant response rating, Oilseed Rape: 98

## CCCc1nn(-c2ccc(F)cc2F)nc1Oc1ccnc(C(F)(F)F)c1 [Compound 179]
Waterhemp [1]
  Plant response rating, Waterhemp: 90
Oilseed Rape [2]
  Plant response rating, Oilseed Rape: 40
[3]
  Plant response rating, Barnyardgrass: 100
Barnyardgrass; [10]
  Plant response rating, Barnyardgrass: 40
Barnyardgrass; [11]
  Plant response rating, Barnyardgrass: 45
Barnyardgrass; 250 g ai/ha, scale 0 to 100
  Plant response rating, Barnyardgrass: 75
Oilseed Rape [4]; [12]
  Plant response rating, Oilseed Rape: 30
Oilseed Rape [4]; [13]
  Plant response rating, Oilseed Rape: 100
Waterhemp [5]; [14]
  Plant response rating, Waterhemp: 95
Waterhemp [5]; [15]
  Plant response rating, Waterhemp: 95
Oilseed Rape [6]
  Plant response rating, Oilseed Rape: 100
Oilseed Rape [7]; [14]
  Plant response rating, Oilseed Rape: 90
Oilseed Rape [7]; [15]
  Plant response rating, Oilseed Rape: 90
Waterhemp [8]
  Plant response rating, Waterhemp: 80
Oilseed Rape [9]
  Plant response rating, Oilseed Rape: 98
